Columns and labels:
[1] = system: rat model of low-fiber diet-induced constipation; test: Rat model of low-fiber diet-induced constipation (Example 2)
Method: Compound 2 was weighed and was dissolved in distilled water at preparation concentrations of 3, 10 and 30 mg/mL as the free drug to prepare test compounds.
0.5% methylcellulose (0.5% MC) was used as a vehicle for preparation of lubiprostone. Lubiprostone was weighed and was suspended in 0.5% MC at preparation concentrations of 1, 3 and 10 mg/mL to prepare control substances.
Magnesium sulfate (MgSO4) (Wako pure chemical) was weighed and was dissolved in distilled water at a preparation concentrations of 200 mg/mL to prepare a positive control substance.
A soluble starch, sucrose and lactose monohydrate were weighed at a rate of 6:3:1 and were dissolved in distilled water which was approximately 80% of the amounts of preparation on heating, and then the mixture was added with distilled water to prepare 0.4 g/mL solution of mixed carbohydrate.
A low-fiber diet was prepared based on the literature (Kakino et al. BMC Complementary and Alternative Medicine 2010, 10: 68).
Rats were fed on the low-fiber diet for 1-2 weeks to induce constipation.
Compound 2 (3 mg/kg, 10 mg/kg or 30 mg/kg as free drug), lubiprostone (1 mg/kg, 3 mg/kg or 10 mg/kg), MgSO4 (2000 mg/kg) or a vehicle (distilled water: Control group 1, 0.5% MC: Control group 2) was administered orally at around 9 a.m. using a 1 mL glass syringe and a stomach tube. Then, 0.4 g/mL solution of mixed carbohydrate was administered orally at 2 mL/body to Control group 1 and the groups administered with Compound 2. Distilled water was administered to the normal feed group.
The sum of the fecal weights at the collection times was set as the fecal weight at 24 hours after the administration.
The statistical analysis was made by testing the uniformity of variance using Bartlett's method, and multiple comparison between Control group 1 and the group administered with Compound 2 or Control group 2 and the group administered with lubiprostone was made using Dunnett's method when variance was uniform respectively, and multiple comparison was made using Steel's method when variance was not uniform. In each case, significance level<5% was considered as significant difference.

healthy adult males = test: Multiple-dose study in healthy adult males (Example 4); type: in vivo, human
Method: Compound 2 at a dose of 2, 5, 10 or 20 mg (free drug equivalent), a placebo, or miglitol at a dose of 50 mg was repetitively administered orally once daily just immediately before breakfast on administration Days 1 and 13, and 3 times daily just immediately before every meal on administration Days 3 to 12 to healthy adult males. For the administration of Compound 2, tablets containing 1, 5 or 10 mg in free drug equivalent were used. The test period was set between administration Day 1 and Day 15. Frequencies of bowel movements were checked during consultation by a doctor, and the adverse events (gastrointestinal disorders) were defined when an abnormal finding (diarrhea or loose stool) was seen based on the stool form and the finding. In this regard, the frequencies of bowel movements in Table 8 show the daily means during fifteen days (time/day).

[2] = system: Loperamide-induced dog constipation model; test: Loperamide-induced dog constipation model (Example 1); type: in vivo; conditions: for Dry fecal weight within 24 hours after the administration / Wet fecal weight within 24 hours after the administration / Frequency of bowel movement within 24 hours after the administration: mean of 10 dogs; for Dry fecal weight within 24 hours after the administration: Control group 1.0, Normal group 47.1; for Wet fecal weight within 24 hours after the administration: Control group 2.8, Normal group 136.2; for Frequency of bowel movement within 24 hours after the administration: observation at 17, 21, 24 hours, Control group 0.2, Normal group 2.1
Method: Lubiprostone (TLC Pharma Chem) was weighed and was suspended in 0.5% methylcellulose at preparation concentrations of 0.05 and 0.35 mg/mL to prepare control substances.
Loperamide hydrochloride (Wako pure chemical) was weighed at 0.3, 0.5, 1.0, 2.0, 4.0 or 8.0 mg/kg for each animal and was filled into a gelatin capsule.
Loperamide hydrochloride which was filled into a gelatin capsule was orally administered to dogs (beagle, male, 13-14 months old, 10 dogs, Kitayama-labesu). The dosage was increased from 0.3 mg/kg, and was set at 2.0, 4.0 or 8.0 mg/kg based on the bowel movement condition of each dog.
Tests were performed as a full cross-over trial. More than 5-day washout period was provided between each test, and a recovery of stool form was identified, and then the next test was performed.
A gelatin capsule which was filled with loperamide hydrochloride was administered orally at around 9 a.m. on the first and second days in each test.
The stool form of feces was scored in seven categories based on Bristol Stool Form Scale. The collected feces were dried fully, and then the feces were weighed, and it was set as the dry fecal weight.

O=S(=O)([O-])[O-].[Mg+2] [MgSO4, Magnesium sulfate]
Watery stool ([1]; 2000 mg/kg): watery stool was reported
Fecal weight, effect of positive control ([1]; 2000 mg/kg oral): increase of the fecal weight was also shown
Fecal weight within 24 hours after the administration ([1]; 2000 mg/kg oral, positive control, n=4, Control group 1 0.53): 3.70 g

OCCN1C[C@H](O)[C@@H](O)[C@H](O)[C@H]1CO [Miglitol, miglitol, reference compound]
Daily frequency of bowel movement after the administration, Mean (healthy adult males; 50 mg, once daily Days 1 and 13, 3 times daily Days 3 to 12, daily mean during fifteen days, 8 subjects, Placebo 1.0): 1.0 time/day
Number of subject with gastrointestinal disorders: Abdominal pain (healthy adult males; multiple dose 50 mg, of 8 subjects, Placebo 0): 0
Number of subject with gastrointestinal disorders: Diarrhea (healthy adult males; multiple dose 50 mg, of 8 subjects, Placebo 3): 2

CCCCC(F)(F)[C@@]1(O)CC[C@H]2[C@@H](CC(=O)[C@@H]2CCCCCCC(=O)O)O1 [lubiprostone, Lubiprostone, reference compound]
Wet fecal weight, dry weight and frequency of bowel movements versus Control group ([2]; 0.1 mg/kg or more, significance level <5%): significantly higher than in Control group
Dry fecal weight within 24 hours after the administration ([2]; 0.1 mg/kg oral): 8.3 g
Wet fecal weight within 24 hours after the administration ([2]; 0.1 mg/kg oral): 18.7 g
Frequency of bowel movement within 24 hours after the administration ([2]; 0.1 mg/kg oral): 0.9 time
Dry fecal weight within 24 hours after the administration ([2]; 0.7 mg/kg oral): 21.5 g
Wet fecal weight within 24 hours after the administration ([2]; 0.7 mg/kg oral): 55.4 g
Frequency of bowel movement within 24 hours after the administration ([2]; 0.7 mg/kg oral): 1.0 time
Increases of loose stool and diarrhea ([2]; all doses of this test): not observed
Dose dependence of wet fecal weight, dry weight and frequency of bowel movements ([2]; within 24 hours after oral administration): dose-dependently increased
Fecal weight within 24 hours after the administration ([1]; 1 mg/kg oral in 0.5% MC, n=5, Control group 2 0.58): 0.60 g
Fecal weight within 24 hours after the administration ([1]; 3 mg/kg oral in 0.5% MC, n=5, Control group 2 0.58): 0.95 g
Fecal weight within 24 hours after the administration ([1]; 10 mg/kg oral in 0.5% MC, n=5, Control group 2 0.58): 1.25 g
Fecal weight during 24 hours versus Control group ([1]; 10 mg/kg, versus Control group 2, significance level <5%): significantly higher than in each Control group
Dose dependence of fecal weight during 24 hours after the administration ([1]; oral): dose-dependently increased

From US9694027B2, “Pyrazole derivative and use thereof for medical purposes” (KISSEI PHARMACEUTICAL CO. LTD., priority 2012, dated 2017)
